For orientation: Ki means a measure of affinity in units of concentration, obtained from inhibition or displacement.

The text below walks through data of patent publication US10213433B2 (AbbVie Inc., priority 2010, dated 2019).

The structures appear in SMILES notation. Where only a bound is given, the exact number is not on record here.

Bcl-2 protein, sequence (P10415 whole entry): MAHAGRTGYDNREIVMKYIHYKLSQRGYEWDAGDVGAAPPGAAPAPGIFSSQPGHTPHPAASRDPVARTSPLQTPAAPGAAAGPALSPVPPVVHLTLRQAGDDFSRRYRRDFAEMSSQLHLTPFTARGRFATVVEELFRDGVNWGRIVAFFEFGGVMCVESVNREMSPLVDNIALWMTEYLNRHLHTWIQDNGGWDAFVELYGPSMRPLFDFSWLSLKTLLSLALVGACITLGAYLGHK

The assay concerns the target Bcl-2 protein (Homo sapiens (Human), UniProt P10415). Kind of assay: Bcl-2 binding TR-FRET (Time-Resolved Fluorescence-Resonance-Energy-Transfer) assay. To be noted: inhibition constant for binding to Bcl-2 protein. An excerpt: The smaller the Ki value, the greater is the binding affinity.
(TR-FRET usually uses a lanthanide donor and a delayed reading to cut background.)
In turn, `CC1(C)CCC(CN2CCN(c3ccc(C(=O)NS(=O)(=O)c4ccc(N[C@@H]5CCN(CCF)C5)c([N+](=O)[O-])c4)c(Oc4cnc5[nH]ccc5c4)c3)CC2)=C(c2ccc(Cl)cc2)C1` [Compound 183, 4-(4-{[2-(4-chlorophenyl)-4,4-dimethylcyclohex-1-en-1-yl]methyl}piperazin-1-yl)-N-[(4-{[(3R)-1-(2-fluoroethyl)pyrrolidin-3-yl]amino}-3-nitrophenyl)sulfonyl]-2-(1H-pyrrolo[2,b]pyridin-5-yloxy)benzamide] had a Ki of under 0.01 nM. To `CC1(C)CCC(CN2CCN(c3ccc(C(=O)NS(=O)(=O)c4ccc(N[C@@H]5CCN(CC#N)C5)c([N+](=O)[O-])c4)c(Oc4cnc5[nH]ccc5c4)c3)CC2)=C(c2ccc(Cl)cc2)C1` [Compound 262, 4-(4-{[2-(4-chlorophenyl)-4,4-dimethylcyclohex-1-en-1-yl]methyl}piperazin-1-yl)-N-[(4-{[(3R)-1-(cyanomethyl)pyrrolidin-3-yl]amino}-3-nitrophenyl)sulfonyl]-2-(1H-pyrrolo[2,3-b]pyridin-5-yloxy)benzamide] belongs under 0.01 nM; to `COC1(C)CCC(c2ccc(Cl)cc2)=C(CN2CCN(c3ccc(C(=O)NS(=O)(=O)c4ccc(NCC5CCOCC5)c([N+](=O)[O-])c4)c(Oc4cnc5[nH]ccc5c4)c3)CC2)C1` (stereo not drawn) [Compound 378, 4-(4-{[2-(4-chlorophenyl)-5-methoxy-5-methylcyclohex-1-en-1-yl]methyl}piperazin-1-yl)-N-({3-nitro-4-[(tetrahydro-2H-pyran-4-ylmethyl)amino]phenyl}sulfonyl)-2-(1H-pyrrolo[2,3-b]pyridin-5-yloxy)benzamide], under 0.001 nM; to `CC1(C)CCC(CN2CCN(c3ccc(C(=O)NS(=O)(=O)c4cnc(OCC5(F)CCN(C(CF)CF)CC5)c(Cl)c4)c(Oc4cnc5[nH]ccc5c4)c3)CC2)=C(c2ccc(Cl)cc2)C1` [Compound 282, N-[(5-chloro-6-{[1-(1,3-difluoropropan-2-yl)-4-fluoropiperidin-4-yl]methoxy}pyridin-3-yl)sulfonyl]-4-(4-{[2-(4-chlorophenyl)-4,4-dimethylcyclohex-1-en-1-yl]methyl}piperazin-1-yl)-2-(1H-pyrrolo[2,3-b]pyridin-5-yloxy)benzamide], under 0.01 nM. Consider `CC1(C)CCC(CN2CCN(c3ccc(C(=O)NS(=O)(=O)c4ccc(OC[C@H]5CC[C@@](C)(O)CC5)c(Cl)c4)c(Oc4cnc5[nH]ccc5c4)c3)CC2)=C(c2ccc(Cl)cc2)C1` [Compound 362, N-({3-chloro-4-[(trans-4-hydroxy-4-methylcyclohexyl)methoxy]phenyl}sulfonyl)-4-(4-{[2-(4-chlorophenyl)-4,4-dimethylcyclohex-1-en-1-yl]methyl}piperazin-1-yl)-2-(1H-pyrrolo[2,3-b]pyridin-5-yloxy)benzamide], for which the Ki is 0.016 nM. In other words, the picomolar range. To `CC1(C)CCC(CN2CCN(c3ccc(C(=O)NS(=O)(=O)c4ccc(OCC5(F)CCN(C(=O)OC(C)(C)C)CC5)c([N+](=O)[O-])c4)c(Oc4cnc5[nH]ccc5c4)c3)CC2)=C(c2ccc(Cl)cc2)C1` [Compound 126, tert-butyl 4-{[4-({[4-(4-{[2-(4-chlorophenyl)-4,4-dimethylcyclohex-1-en-1-yl]methyl}piperazin-1-yl)-2-(1H-pyrrolo[2,3-b]pyridin-5-yloxy)benzoyl]amino}sulfonyl)-2-nitrophenoxy]methyl}-4-fluoropiperidine-1-carboxylate] belongs under 0.01 nM.

Take `CC1(C)CCC(CN2CCN(c3ccc(C(=O)NS(=O)(=O)c4ccc(NC5CCN(C(C)(C)C)CC5)c(S(=O)(=O)C(F)(F)F)c4)c(Oc4cnc5[nH]ccc5c4)c3)CC2)=C(c2ccc(Cl)cc2)C1` [Compound 240, N-({4-[(1-tert-butylpiperidin-4-yl)amino]-3-[(trifluoromethyl)sulfonyl]phenyl}sulfonyl)-4-(4-{[2-(4-chlorophenyl)-4,4-dimethylcyclohex-1-en-1-yl]methyl}piperazin-1-yl)-2-(1H-pyrrolo[2,3-b]pyridin-5-yloxy)benzamide]: the Ki is under 0.01 nM. To `CC1(C)CCC(CN2CCN(c3ccc(C(=O)NS(=O)(=O)c4ccc(NCC5CN(C(CF)CF)C5)c([N+](=O)[O-])c4)c(Oc4cnc5[nH]ccc5c4)c3)CC2)=C(c2ccc(Cl)cc2)C1` [Compound 161, 4-(4-{[2-(4-chlorophenyl)-4,4-dimethylcyclohex-1-en-1-yl]methyl}piperazin-1-yl)-N-({4-[({1-[2-fluoro-1-(fluoromethyl)ethyl]azetidin-3-yl}methyl)amino]-3-nitrophenyl}sulfonyl)-2-(1H-pyrrolo[2,3-b]pyridin-5-yloxy)benzamide] belongs under 0.01 nM; to `CC1(C)CCC(CN2CCN(c3ccc(C(=O)NS(=O)(=O)c4cnc(NC[C@H]5CC[C@](C)(O)CC5)c([N+](=O)[O-])c4)c(Oc4cnc5[nH]ccc5c4)c3)CC2)=C(c2ccc(Cl)cc2)C1` [Compound 376, 4-(4-{[2-(4-chlorophenyl)-4,4-dimethylcyclohex-1-en-1-yl]methyl}piperazin-1-yl)-N-[(6-{[(cis-4-hydroxy-4-methylcyclohexyl)methyl]amino}-5-nitropyridin-3-yl)sulfonyl]-2-(1H-pyrrolo[2,3-b]pyridin-5-yloxy)benzamide], under 0.001 nM; to `CC1(C)CCC(CN2CCN(c3ccc(C(=O)NS(=O)(=O)c4cnc(OCC5CCc6nccn6C5)c(Cl)c4)c(Oc4cnc5[nH]ccc5c4)c3)CC2)=C(c2ccc(Cl)cc2)C1` (stereo not drawn) [Compound 342, 4-(4-{[2-(4-chlorophenyl)-4,4-dimethylcyclohex-1-en-1-yl]methyl}piperazin-1-yl)-N-{[5-chloro-6-(5,6,7,8-tetrahydroimidazo[1,2-a]pyridin-6-ylmethoxy)pyridin-3-yl]sulfonyl}-2-(1H-pyrrolo[2,3-b]pyridin-5-yloxy)benzamide], under 0.01 nM. The compound `CC1(C)CCC(CN2CCN(c3ccc(C(=O)NS(=O)(=O)c4ccc(NCC5CN(CCF)CCO5)c([N+](=O)[O-])c4)c(Oc4cnc5[nH]ccc5c4)c3)CC2)=C(c2ccc(Cl)cc2)C1` (stereo not drawn) [Compound 165, 4-(4-{[2-(4-chlorophenyl)-4,4-dimethylcyclohex-1-en-1-yl]methyl}piperazin-1-yl)-N-{[4-({[4-(2-fluoroethyl)morpholin-2-yl]methyl}amino)-3-nitrophenyl]sulfonyl}-2-(1H-pyrrolo[2,3-b]pyridin-5-yloxy)benzamide] came in with a Ki of under 0.01 nM. `CC1(C)CCC(CN2CCN(c3ccc(C(=O)NS(=O)(=O)c4ccc(OCC5CCOC(C)(C)C5)c([N+](=O)[O-])c4)c(Oc4cnc5[nH]ccc5c4)c3)CC2)=C(c2ccc(Cl)cc2)C1` (stereo not drawn) [Compound 51, 4-(4-{[2-(4-chlorophenyl)-4,4-dimethylcyclohex-1-en-1-yl]methyl}piperazin-1-yl)-N-({4-[(2,2-dimethyltetrahydro-2H-pyran-4-yl)methoxy]-3-nitrophenyl}sulfonyl)-2-(1H-pyrrolo[2,3-b]pyridin-5-yloxy)benzamide] registered a Ki of under 0.01 nM.

`CC1(C)CCC(CN2CCN(c3ccc(C(=O)NS(=O)(=O)c4cnc(O[C@H]5CC[C@H](N6CCOCC6)CC5)c(Br)c4)c(Oc4cnc5[nH]ccc5c4)c3)CC2)=C(c2ccc(Cl)cc2)C1` [Compound 124] returned a Ki of under 0.01 nM. Under `CCN1CCOCC1COc1ccc(S(=O)(=O)NC(=O)c2ccc(N3CCN(CC4=C(c5ccc(Cl)cc5)CC(C)(C)CC4)CC3)cc2Oc2cnc3[nH]ccc3c2)cc1[N+](=O)[O-]` (stereo not drawn) [Compound 103, 4-(4-{[2-(4-chlorophenyl)-4,4-dimethylcyclohex-1-en-1-yl]methyl}piperazin-1-yl)-N-({4-[(4-ethylmorpholin-3-yl)methoxy]-3-nitrophenyl}sulfonyl)-2-(1H-pyrrolo[2,3-b]pyridin-5-yloxy)benzamide] stands under 0.01 nM; under `CC1(C)CCC(CN2CCN(c3ccc(C(=O)NS(=O)(=O)c4ccc(NC[C@H]5CCN(C6CCOCC6)C5)c([N+](=O)[O-])c4)c(Oc4cnc5[nH]ccc5c4)c3)CC2)=C(c2ccc(Cl)cc2)C1` [Compound 118, 4-(4-{[2-(4-chlorophenyl)-4,4-dimethylcyclohex-1-en-1-yl]methyl}piperazin-1-yl)-N-{[3-nitro-4-({[(3R)-1-tetrahydro-2H-pyran-4-ylpyrrolidin-3-yl]methyl}amino)phenyl]sulfonyl}-2-(1H-pyrrolo[2,3-b]pyridin-5-yloxy)benzamide], under 0.01 nM. To `CC1(C)CCC(CN2CCN(c3ccc(C(=O)NS(=O)(=O)c4ccc(N[C@H]5CCN(C6CCOCC6)C5)c([N+](=O)[O-])c4)c(Oc4cnc5[nH]ccc5c4)c3)CC2)=C(c2ccc(Cl)cc2)C1` [Compound 132, 4-(4-{[2-(4-chlorophenyl)-4,4-dimethylcyclohex-1-en-1-yl]methyl}piperazin-1-yl)-N-[(3-nitro-4-{[(3S)-1-tetrahydro-2H-pyran-4-ylpyrrolidin-3-yl]amino}phenyl)sulfonyl]-2-(1H-pyrrolo[2,3-b]pyridin-5-yloxy)benzamide] belongs under 0.01 nM. Compound `CC1(C)CCC(CN2CCN(c3ccc(C(=O)NS(=O)(=O)c4ccc(NCC5CCC6(CC5)COC6)c([N+](=O)[O-])c4)c(Oc4cnc5[nH]ccc5c4)c3)CC2)=C(c2ccc(Cl)cc2)C1` [Compound 365, 4-(4-{[2-(4-chlorophenyl)-4,4-dimethylcyclohex-1-en-1-yl]methyl}piperazin-1-yl)-N-({3-nitro-4-[(2-oxaspiro[3.5]non-7-ylmethyl)amino]phenyl}sulfonyl)-2-(1H-pyrrolo[2,3-b]pyridin-5-yloxy)benzamide] came in with a Ki of under 0.01 nM. `CC1(C)CCC(CN2CCN(c3ccc(C(=O)NS(=O)(=O)c4ccc(N[C@H]5CCN(C6CCOC(C)(C)C6)C5)c([N+](=O)[O-])c4)c(Oc4cnc5[nH]ccc5c4)c3)CC2)=C(c2ccc(Cl)cc2)C1` (stereo partly drawn) [Compound 133, 4-(4-{[2-(4-chlorophenyl)-4,4-dimethylcyclohex-1-en-1-yl]methyl}piperazin-1-yl)-N-[(4-{[(3S)-1-(2,2-dimethyltetrahydro-2H-pyran-4-yl)pyrrolidin-3-yl]amino}-3-nitrophenyl)sulfonyl]-2-(1H-pyrrolo[2,3-b]pyridin-5-yloxy)benzamide] gave an inhibition constant (Ki) of under 0.01 nM.
